± gives the expanded uncertainty stated by the source.
Assays:
[1] = 293.15 K; 101.33 kPa; Liquid; Vibrating tube method
[2] = refractive index (Na D-line) (dimensionless); details: 293.15 K; 101.33 kPa; Liquid; Standard Abbe refractometry

SMILES	mass density [1]	refractive index [2]
Cc1ccc(C)c(C)c1 [1,2,4-trimethylbenzene]	875.78 ± 0.13 kg/m3	1.5047 ± 0.0007
CCc1ccccc1C [1-ethyl-2-methylbenzene]	880.66 ± 0.13 kg/m3	1.5045 ± 0.0007
